According to ChEMBL document CHEMBL1134708, “Synthesis of analogues of the O-beta-D-ribofuranosyl nucleoside moiety of liposidomycins. Part 1: contribution of the amino group and the uracil moiety upon the inhibition of MraY” (Bioorg Med Chem Lett, 2001):

Key:
[1] = target: T1, Phospho-N-acetylmuramoyl-pentapeptide-transferase (Escherichia coli K-12, UniProt P0A6W3); assay: Inhibition of Escherichia coli Translocase (mraY)
T1 sequence (P0A6W3 whole entry): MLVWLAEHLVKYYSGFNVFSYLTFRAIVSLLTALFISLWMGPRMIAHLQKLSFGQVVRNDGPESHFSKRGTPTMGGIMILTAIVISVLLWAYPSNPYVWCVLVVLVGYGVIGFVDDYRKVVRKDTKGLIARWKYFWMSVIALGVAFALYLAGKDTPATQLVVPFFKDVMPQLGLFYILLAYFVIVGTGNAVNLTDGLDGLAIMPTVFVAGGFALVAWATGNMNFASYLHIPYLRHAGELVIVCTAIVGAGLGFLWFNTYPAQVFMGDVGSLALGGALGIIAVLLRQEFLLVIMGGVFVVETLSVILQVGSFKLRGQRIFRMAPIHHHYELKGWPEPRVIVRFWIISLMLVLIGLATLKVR

[2] = target: T1, Phospho-N-acetylmuramoyl-pentapeptide-transferase; assay: Inhibition of Translocase (mraY) at >1000 uM (No activity)

Question: For N=C(N)NC[C@H]1O[C@@H](OC[C@H]2O[C@@H](n3ccc(=O)[nH]c3=O)[C@H](O)[C@@H]2O)[C@H](O)[C@@H]1O, which IC50 [1] is on record?
Answer: 25 µM

Question: How did the IC50 [1] turn out when NC[C@H]1O[C@@H](OC(CO)[C@H]2O[C@@H](n3ccc(=O)[nH]c3=O)[C@H](O)[C@@H]2O)[C@H](O)[C@@H]1O (stereo partly specified) was run?
Answer: 5 µM

Question: CC(=O)NC[C@H]1O[C@@H](OC[C@H]2O[C@@H](n3ccc(=O)[nH]c3=O)[C@H](O)[C@@H]2O)[C@H](O)[C@@H]1O was tested. Which IC50 [1] did it give?
Answer: > 1000 µM

Question: Which IC50 [1] does the source give for CCNC[C@H]1O[C@@H](OC[C@H]2O[C@@H](n3ccc(=O)[nH]c3=O)[C@H](O)C2O)[C@H](O)C1O (single isomer, unassigned) here?
Answer: 150 µM

Question: N=CNC[C@H]1O[C@@H](OC[C@H]2O[C@@H](n3ccc(=O)[nH]c3=O)[C@H](O)C2O)[C@H](O)C1O (single isomer, unassigned) was tested. Which IC50 [1] did it give?
Answer: 30 µM

Question: Cn1c(=O)ccn([C@@H]2O[C@H](CO[C@@H]3O[C@H](CN)C(O)[C@H]3O)C(O)[C@H]2O)c1=O (single isomer, unassigned) was tested. Which IC50 [2] did it give?
Answer: Not Active

Question: Which IC50 [1] does the source give for CN(C)C[C@H]1O[C@@H](OC[C@H]2O[C@@H](n3ccc(=O)[nH]c3=O)[C@H](O)C2O)[C@H](O)C1O (single isomer, unassigned) here?
Answer: > 1000 µM

Question: With NC[C@H]1O[C@@H](OC[C@H]2O[C@@H](N3CCC(=O)NC3=O)[C@H](O)C2O)[C@H](O)C1O (single isomer, unassigned) as the molecule, how does the IC50 [2] read?
Answer: Not Active

Question: Which IC50 [1] does the source give for O=CNC[C@H]1O[C@@H](OC[C@H]2O[C@@H](n3ccc(=O)[nH]c3=O)[C@H](O)C2O)[C@H](O)C1O (single isomer, unassigned) here?
Answer: > 1000 µM

Question: With CC(C)NC[C@H]1O[C@@H](OC[C@H]2O[C@@H](n3ccc(=O)[nH]c3=O)[C@H](O)C2O)[C@H](O)C1O (single isomer, unassigned) as the molecule, how does the IC50 [1] read?
Answer: 180 µM

Question: For CCCNC[C@H]1O[C@@H](OC[C@H]2O[C@@H](n3ccc(=O)[nH]c3=O)[C@H](O)C2O)[C@H](O)C1O (single isomer, unassigned), which IC50 [1] is on record?
Answer: 140 µM

Question: NC[C@H]1O[C@@H](OC[C@H]2O[C@@H](n3ccc(=O)[nH]c3=O)[C@H](O)C2O)[C@H](O)C1O (single isomer, unassigned) was tested. Which IC50 [1] did it give?
Answer: 50 µM

Question: CNC[C@H]1O[C@@H](OC[C@H]2O[C@@H](n3ccc(=O)[nH]c3=O)[C@H](O)C2O)[C@H](O)C1O (single isomer, unassigned) was tested. Which IC50 [1] did it give?
Answer: 45 µM

Question: How did the IC50 [1] turn out when CCCCCCNC[C@H]1O[C@@H](OC[C@H]2O[C@@H](n3ccc(=O)[nH]c3=O)[C@H](O)C2O)[C@H](O)C1O (single isomer, unassigned) was run?
Answer: 130 µM

Question: How did the IC50 [1] turn out when C[N+](C)(C)C[C@H]1O[C@@H](OC[C@H]2O[C@@H](n3ccc(=O)[nH]c3=O)[C@H](O)C2O)[C@H](O)C1O (single isomer, unassigned) was run?
Answer: > 1000 µM

Question: With O=c1ccn([C@@H]2O[C@H](CO[C@@H]3O[C@H](CO)C(O)[C@H]3O)C(O)[C@H]2O)c(=O)[nH]1 (single isomer, unassigned) as the molecule, how does the IC50 [1] read?
Answer: > 1000 µM
